# Like-named read-outs stand apart in the source and are kept apart here.
# Columns and labels:
# [1] = Stability of analytes in rat plasma QC samples under storage conditions; format: physicochemical; details: n = 6; for Stability during 24 h at 4°C, RE: post-treatment storage in autosampler; for −80°C for 30 days, RE / Three freeze–thaw cycles, RE: rat plasma; for −80°C for 30 days, RE: long-term; for Three freeze–thaw cycles, RE: −80°C to room temperature
# Description: The stability of QC samples in six replicates at three concentrations (low, medium, and high levels) was analyzed under different storage conditions: the post-treatment stability was analyzed after storage in an autosampler (4°C) for 24 h. Freeze–thaw stability was investigated after three freeze–thaw cycles (−80°C to room temperature as one cycle). Long-term stability was assessed by analyzing QC samples kept at −80°C for 30 days. The concentrations of the analytes in the plasma samples and the QC samples were calculated by the calibration standard curve prepared each day. The stabilities of analytes were acceptable when the accuracy (RE, %) and precision (RSD, %) of all QC samples in all storage conditions were within ±15% compared to nominal concentrations.
# [2] = Pharmacokinetic study in rats after oral administration of cinobufacini capsule (UPLC-MS/MS of plasma); format: in vivo, rat; details: for AUC(0-inf) / AUC(0-t) / Cmax / Tmax / CL/F / MRT last / MRT inf / half-life / Vd/F: male, Sprague-Dawley, in vivo, rat plasma, mean ± SD, n = 6; for CL/F: read-out: CLz/F (converted); for MRT last: read-out: MRT0-t; for MRT inf: read-out: MRT0-∞; for half-life: read-out: T1/2z (converted); for Vd/F: read-out: Vz/F
# Description: Male Sprague–Dawley rats (weighing 200–220 g) of SPF grade were offered by Sippr/BK laboratory Animal, Corp., Ltd. (Shanghai, China) and fed in the Laboratory Animal Center of the Shanghai University of Traditional Chinese Medicine. All the rats were kept under environmentally controlled conditions with constant temperature (22–24°C) and humidity (60–65%). The animal experiment program in the present research was approved by the Animal Committee of the Shanghai University of Traditional Chinese Medicine (PZSHUTCM210618012).
# An Agilent 1290 liquid chromatographic system includes a G4220A quaternary pump, a G1326C column incubator, a G4226A automatic sampler, and a G1330B degasser. The column temperature was set to 35°C. A measure of 5 µL of samples were separated in an Agilent SB-C18 column (2.1 mm ×50 mm, 1.8 μm) and eluted at 0.3 ml/min, followed by gradient elution with water (0.1% V/V formic acid) (A) and acetonitrile (B) (0–1 min, 20%–20% B; 1–3.5 min, 20%–80% B; 4–4.1 min, 80%-20% B; 4.1–6 min, 20% B). The total run time was 6 minutes.
# An Agilent 1290 Infinity series UPLC system was combined with an Agilent 6460 series triple quadrupole mass spectrometer (Agilent Technologies, Santa Clara, CA, United States) to quantify all 13 analytes in an ESI-positive ionization mode. Quantitative analysis was performed in an MRM mode. The mass spectrum conditions were as follows: capillary voltage, 4000V; drying gas (N2), gas flow rate: 10 L/min; sprayer, 30 psi; gas temperature 350°C; The delta EMV (+) 200 V; collision gas (N2); dwell time, 25 ms. Agilent’s MassHunter Workstation software was used for data collection, peak area calculation, and quantitative analysis.
# A measure of 50 µL of the plasma sample was mixed with 10 µL of the internal standard solution (345 ng/ml) in a 1.5-ml centrifuge tube and vortexed for 5 min. The samples were extracted by 500 µL of ethyl acetate for 5 min and centrifuged at 4°C for 10 min (18000 rpm). All the supernatants were collected into another 1.5-ml centrifuge tube, dried under a gentle stream of nitrogen at 37°C, and then added with 50 µL of 80% methanol for resolution. The resolution samples were centrifuged at 4°C for 10 min (18000 rpm), and 5 µL supernatant was extracted and injected for analysis.
# Twenty-four male Sprague–Dawley rats (weigh 200–220 g) were divided into four groups with six rats in each group randomly, including three capsule groups at three different doses and one injection group. In the instructions for cinobufacini capsule and injection, the clinical dosage for adults is 2 g per 70 kg orally and 20 ml per 70 kg intravenously, converting to rat doses of 180 mg/kg and 1.8 ml/kg, respectively.
# In the pre-experiments, we compared cinobufacini capsule of 180 mg/kg (one-time clinical dose) and 900 mg/kg (five times of clinical dose) and Cinobufacini injection of 1.8 ml/kg, but concentrations of some compounds in plasma were too low and difficult to be quantified. […] The experimental rats were led to fast the night and were free to get access to water for 12 h before the pharmacokinetic study. After administration, blood samples (approximately 150 μL) of rats were collected via retro-orbital sinus into heparinized centrifuge tubes at 0.05, 0.083, 0.25, 0.5, 0.75, 1, 2, 4, 6, 8, and 10 h. After centrifugation at 5,000 rpm for 10 min, the plasma was transferred to 1.5-ml polypropylene tubes and stored at −80°C until UPLC-MS/MS analysis.
# GraphPad Prism software (version 8.0.2) was used to draw the mean plasma concentration–time curves of all analytes. The pharmacokinetic parameters were calculated by DAS 3.2.8 software. Meanwhile, the pharmacokinetic data on rats were presented as mean ± standard deviation (SD). Differences of pharmacokinetic parameters between groups were analyzed by the t-test using SPSS software (version 26.0). Differences were considered significant statistically when the p-values were <0.05 and very significant statistically when the p-values were <0.01.
# [3] = high QC level (249.58–250.28 ng/ml)
# [4] = medium QC level (49.92–50.06 ng/ml)
# [5] = oral cinobufacini capsule 0.9 g/kg (low)
# [6] = oral cinobufacini capsule 1.8 g/kg (medium)
# [7] = oral cinobufacini capsule 3.6 g/kg (high)
SMILES,"Stability during 24 h at 4°C, RE [1, 3] [%]","Stability during 24 h at 4°C, RE ([1]; low QC level (4.99–5.00 ng/ml)) [%]","Stability during 24 h at 4°C, RE [1, 4] [%]","−80°C for 30 days, RE [1, 3] [%]","−80°C for 30 days, RE ([1]; low QC level (4.99–5.00 ng/ml)) [%]","−80°C for 30 days, RE [1, 4] [%]","Three freeze–thaw cycles, RE [1, 3] [%]","Three freeze–thaw cycles, RE ([1]; low QC level (4.99–5.00 ng/ml)) [%]","Three freeze–thaw cycles, RE [1, 4] [%]","AUC(0-inf) [2, 5] [ng·h/mL]","AUC(0-t) [2, 5] [ng·h/mL]","Cmax [2, 5] [ng/mL]","Tmax [2, 5] [h]","CL/F [2, 5] [mL/min/kg]","MRT last [2, 5] [h]","MRT inf [2, 5] [h]","half-life [2, 5] [h]","Vd/F [2, 5] [L/kg]","AUC(0-inf) [2, 6] [ng·h/mL]","AUC(0-t) [2, 6] [ng·h/mL]",other results
"C[C@]12CC[C@H](O)C[C@H]1CC[C@@H]1[C@@H]2CC[C@]2(C)[C@@H](c3ccc(=O)oc3)[C@@H](O)[C@H]3O[C@]132 [DCG, desacetylcinobufagin]",4.6,1.5,6.7,−3.8,1.9,3.8,−2.8,3.0,4.9,67 ± 15.3,61.7 ± 7.8,17.2 ± 4.77,0.83 ± 0.2,13,3.95 ± 0.73,4.74 ± 1.56,1.22 ± 0.81,2.8 ± 1.71,112 ± 14.9,100 ± 12.4,"Cmax [2, 6]: 35.6 ± 2.59 ng/mL; Tmax [2, 6]: 0.89 ± 0.13 h; CL/F [2, 6]: 12 mL/min/kg; MRT last [2, 6]: 3 ± 0.63 h; MRT inf [2, 6]: 4.86 ± 0.46 h; half-life [2, 6]: 4.76 ± 0.52 h; Vd/F [2, 6]: 5.62 ± 0.68 L/kg; AUC(0-inf) [2, 7]: 150 ± 30 ng·h/mL; AUC(0-t) [2, 7]: 148 ± 30.2 ng·h/mL; Cmax [2, 7]: 56.6 ± 7.79 ng/mL; Tmax [2, 7]: 0.82 ± 0.12 h; CL/F [2, 7]: 17.2 mL/min/kg; MRT last [2, 7]: 2.44 ± 0.41 h; MRT inf [2, 7]: 2.65 ± 0.44 h; half-life [2, 7]: 2.09 ± 0.6 h; Vd/F [2, 7]: 2.79 ± 1.51 L/kg; time to reach maximum plasma concentration (Cmax) ([2]; rats, after gavage administration of cinobufacini capsule): ≤ 60 min"
"C[C@]12CC[C@H](O)C[C@@]1(O)CC[C@@H]1[C@@H]2CC[C@]2(C)[C@@H](c3ccc(=O)oc3)[C@@H](O)[C@H]3O[C@]132 [DCT, desacetylcinobufotalin]",9.6,11.4,7.3,8.7,2.4,12.7,7.3,3.7,12.1,13.4 ± 3.76,13 ± 3.69,6.94 ± 5.35,0.87 ± 0.63,66,2.53 ± 0.99,2.95 ± 1.78,0.83 ± 0.25,5.16 ± 2.57,35.7 ± 12.1,34.2 ± 10.4,"Cmax [2, 6]: 12.3 ± 3.11 ng/mL; Tmax [2, 6]: 0.61 ± 0.32 h; CL/F [2, 6]: 50.3 mL/min/kg; MRT last [2, 6]: 2.68 ± 0.88 h; MRT inf [2, 6]: 3.1 ± 0.92 h; half-life [2, 6]: 1.97 ± 1.36 h; Vd/F [2, 6]: 8.27 ± 5.18 L/kg; AUC(0-inf) [2, 7]: 62.7 ± 16.8 ng·h/mL; AUC(0-t) [2, 7]: 61.2 ± 16.1 ng·h/mL; Cmax [2, 7]: 22.2 ± 5.19 ng/mL; Tmax [2, 7]: 0.39 ± 0.2 h; CL/F [2, 7]: 42.5 mL/min/kg; MRT last [2, 7]: 2.28 ± 0.37 h; MRT inf [2, 7]: 2.53 ± 0.58 h; half-life [2, 7]: 1.53 ± 0.82 h; Vd/F [2, 7]: 5.59 ± 3.29 L/kg"
